Assay results taken from patent US20240226245A9, “ZIP-IN TECHNOLOGY FOR ANTIVIRAL THERAPEUTIC NANOFORMULATIONS” (PAROLE LABORATORIES INC., priority 2022, published 2024).

Assay: Net charge vs pH of the payload molecule
Format: physicochemical
Excerpt: Step 2: This is an essential step. For short payload molecules with a single ionizable group is enough to know pKa, so the useful pH range is pH>pKa+1 for acidic compounds and pH<pKa−1 for basic compounds. For payloads that are macromolecules with multiple different ionizable groups, such as peptides and proteins, must be measured or calculated net charge vs pH dependence for the full pH range (0-14). Provided three examples, refer to FIGS. 1 to 3.
For the vancomycin example, there are two ranges of pH where it is ionized (FIG. 1), one is pH 1 and below and the second range is pH 8 and up. Vancomycin at pH ˜1 acquires net charge +1, however at pH 12, the net charge is −4.5. Therefore, vancomycin must be encapsulated at pH 12 by the disclosed method as a “negatively charged payload”. Note, in the range of pH from 3 to 7.5 it is impossible to encapsulate vancomycin because it has no charge.
Both Cas9 and Cas13 endonucleases have to be encapsulated at pH<4 as “positively charged payloads”.

Q: Which net charge (pH 12 (FIG. 1)) does the source give for `CN[C@H](CC(C)C)C(=O)N[C@H]1C(=O)N[C@@H](CC(N)=O)C(=O)N[C@H]2C(=O)N[C@H]3C(=O)N[C@H](C(=O)N[C@H](C(=O)O)c4cc(O)cc(O)c4-c4cc3ccc4O)[C@H](O)c3ccc(c(Cl)c3)Oc3cc2cc(c3O[C@@H]2O[C@H](CO)[C@@H](O)[C@H](O)[C@H]2O[C@H]2C[C@](C)(N)[C@H](O)[C@H](C)O2)Oc2ccc(cc2Cl)[C@H]1O` [Vancomycin, vancomycin] here?
A: −4.5

Q: And the net charge (pH from 3 to 7.5 (FIG. 1))?
A: no charge

Q: What about the net charge (pH ˜1 (FIG. 1)) of the same compound?
A: +1
